Data on 59 molecules can be found in the METLIN SMRT retention time set (Domingo-Almenara et al. 2019).

The data set in a line: gradient 5% acetonitrile 3 min, to 50% in 2 min, to 85% in 15 min, held 3 min, 100 µL/min. The settings on record: column: Zorbax Extend-C18 2.1 x 50 mm; eluents: water / acetonitrile, 0.1% formic acid. The method, boiled down: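 Using water and acetonitrile that each contained 0.1% formic acid, mixtures of ~100 pure standards were separated at 100 μL/min on a Zorbax Extend-C18 column (2.1 × 50 mm, 1.8 μm). The HPLC fed a quadrupole time-of-flight mass spectrometer working in positive and negative ionization mode, with dead and dwell volumes of 40 μL and 900 μL. Data were acquired over 3 months. Retention time was read from computationally picked adduct peaks after manual inspection of each.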
In turn, `COc1ccc(CNC(=O)C2(C)CCN(C(=O)Nc3cccc(SC)c3)CC2)cc1` registered an RP-LC retention time of 845 s.

Consider `CCCn1ccc2sc(C)c(C(=O)NCc3cccc(Cl)c3)c2c1=O`, for which the RP-LC retention time was found to be 990 s. The figure for `O=C(NCc1ccc(F)cc1Cl)C1CCN(C(=O)c2cc3ccsc3[nH]2)CC1` is 822 s; for `COc1ccccc1CNC(=O)c1cn2c(n1)CCCC2` it is 589 s. With `Cc1ccc(NC(=O)Cn2nc(N3CCOCC3)c3ccccc3c2=O)cc1`, the RP-LC retention time came to 789 s. The molecule `COc1ccc(OCc2noc(CNC(=O)c3ccccc3Cl)n2)cc1` came in with an RP-LC retention time of 793 s. The figure for `O=C(Nc1nc(-c2ccc(F)cc2)cs1)c1cccc(Br)c1` is 1120 s. Take `CCc1cc(=O)n(CC(=O)Nc2ccc(C)cc2Cl)c(N2CCOCC2)n1`: the RP-LC retention time was found to be 942 s. `CS(=O)(=O)N[C@H]1C[C@@H]2C[C@H]1CN2C(=O)c1cccc(Cl)c1` registered an RP-LC retention time of 672 s. `CCOc1ccc(CNC(=O)CN2CC=C(c3cnn(-c4ccccc4)c3)CC2)cc1` gave an RP-LC retention time of 722 s. In turn, `C/C=C(/C)C(=O)O[C@H]1CC(C)=CC(=O)[C@@]2(C)CC[C@@](O)(C(C)C)[C@H]12` displayed an RP-LC retention time of 725 s. As to `COc1ccc(OC)c(NC(=O)Cn2cccc2-c2nnc(-c3ccccc3)o2)c1`, the RP-LC retention time came out at 1020 s. With `COCc1nc2cccnc2n1C1CCN(C(=O)Nc2cc(C)ccc2C)CC1` the figure was 710 s; with `CC(C)CC1OC(=O)C2=CCCCC21` (centres undefined), 1050 s; with `COc1ccc(CCN2CC(=O)N(c3cc(C)cc(C)c3)[C@@H]3CS(=O)(=O)C[C@@H]32)cc1`, 865 s. Molecule `CCC(=O)N1CCc2sc(C(=O)NCc3ccc(CC)cc3)cc2C1` came in with an RP-LC retention time of 824 s. `CCc1c(C(=O)O)nnn1-c1ccc(Cl)cc1` had an RP-LC retention time of 748 s. In the case of `Cc1ccccc1CNC(=O)c1ccc2c(c1)ncn2CCN1CCCC1`, the RP-LC retention time was 582 s. With `CCCn1cc(C(=O)Nc2ccc3c(c2)OCCO3)c2cccnc21` the figure was 833 s. With `Cc1nc(-c2ccc(OC3CCN(C(=O)c4nn(C)c5ccccc45)C3)cc2)no1` (centres undefined), the RP-LC retention time worked out at 942 s.

`COCC(=O)NC1CCC12CCN(C(=O)c1ccco1)CC2` (centres undefined) registered an RP-LC retention time of 648 s. With `O=C(NCc1ccncc1)C1CCCN(c2ccc(Sc3ccc(Br)cc3)nn2)C1` (centres undefined), the RP-LC retention time turned out to be 653 s. `COC(=O)c1ccc(OC)c(Cn2cnc3c(-c4cccc(F)c4)csc3c2=O)c1` returned an RP-LC retention time of 1080 s. Turning to `Cc1nc(-c2csc(S(=O)(=O)N3CCCC(C(=O)Nc4cccc(Cl)c4C)C3)c2)no1` (centres undefined), the RP-LC retention time turned out to be 1020 s. `CS(=O)(=O)N1CC[C@H]2CN(Cc3cn[nH]c3-c3ccccc3)C[C@@]2(CF)C1` returned an RP-LC retention time of 592 s. Turning to `O=C(Nc1nc(CC(=O)N2CCN(C(=O)C3CCCO3)CC2)cs1)c1ccsc1` (centres undefined), the RP-LC retention time came out at 606 s. On to `O=C(NCc1[nH]nc2ccccc12)c1cccc2[nH]ccc12`, for which the RP-LC retention time is 657 s. Molecule `CCOc1ccc(C(=O)N2CCC3(C2)C(=O)Nc2ccc(OC)cc23)cc1` (centres undefined) gave an RP-LC retention time of 737 s. With `CCC1CCCCN1C(=O)CSc1n[nH]c(-c2ccccc2)n1` (centres undefined) the figure was 819 s. In turn, `COCc1nncn1C1CN(C(=O)Cc2ccc(Cl)cc2)C1` gave an RP-LC retention time of 642 s.

As for `CCn1ccc2c(cc(C(=O)Nc3cc(C)c(Cl)cc3OC)n2C)c1=O`, the RP-LC retention time amounted to 933 s. `Cn1c(=O)c2c(nc([N+](=O)[O-])n2Cc2ccc(F)cc2)n(C)c1=O`: the RP-LC retention time stood at 795 s.

Take `Cc1ccc(Cl)cc1NC(=O)CSc1ccc(N2CCCC(C(=O)NC3CC3)C2)nn1` (centres undefined): the RP-LC retention time was 698 s. Turning to `CCN1CCN(c2cc(C)c3cc(NC(=S)NCc4ccccc4OC)ccc3n2)CC1`, the RP-LC retention time amounted to 605 s. In the case of `CCCC(NC(=O)Cc1ccc(OC)cc1Cl)C(=O)Nc1nc2ccccc2[nH]1` (centres undefined), the RP-LC retention time came out at 730 s. In turn, `O=C(CCn1c(N2CCCC2)nc2ccsc2c1=O)N1CCN(c2ccccn2)CC1` gave an RP-LC retention time of 609 s. `Cn1c(N2CCC(C(=O)N3CCN(c4ccc(Cl)cc4)CC3)CC2)cc(=O)n(C)c1=O` registered an RP-LC retention time of 721 s. Consider `Cc1ccc(NC(=O)C2CCCN(c3nc4ccsc4c(=O)n3Cc3ccc(F)cc3)C2)cc1` (centres undefined), for which the RP-LC retention time was determined as 1030 s. In the case of `O=C(Cn1cnc2nc(N3CCCC(C(=O)NC4CC4)C3)sc2c1=O)Nc1cc(F)cc(F)c1` (centres undefined), the RP-LC retention time is 717 s. Molecule `CCCNc1cc(N2CCC(CCC(=O)Nc3cc(C)ccc3C)CC2)ncn1` gave an RP-LC retention time of 608 s. Molecule `CCc1cccc(NC(=O)Cn2nc(N3CCSCC3)c3ccccc3c2=O)c1` returned an RP-LC retention time of 940 s. `Cc1ccc(OCc2nc(Cc3nc(-c4ccccc4)oc3C)no2)cc1` returned an RP-LC retention time of 1170 s. `CC(=O)Nc1cccc(C2OC(c3c(OC(C)=O)ccc4ccccc34)=NN2C(C)=O)c1` (centres undefined): the RP-LC retention time came out at 838 s. For `O=C(c1ccc2ncccc2c1)N1CCN(c2cc(-c3cccs3)[nH]n2)CC1`, the RP-LC retention time was 641 s. Molecule `Cc1ccc2nc(NC(=O)C3CCN(C(=O)C4Sc5ccccc5NC4=O)CC3)sc2c1` (centres undefined) came in with an RP-LC retention time of 838 s. The figure for `CC(C(=O)NCc1ccco1)C1CCN(C(=O)c2cc3ccccc3[nH]2)CC1` (centres undefined) is 767 s. The molecule `Cc1cc(C)cc(Nc2c(C(=O)N3CCC(C)CC3)cnc3nc(C)ccc23)c1` showed an RP-LC retention time of 693 s. In turn, `COc1cccc(-c2csc(-c3nnn(-c4cccc(OC)c4)c3N)n2)c1` displayed an RP-LC retention time of 1110 s. The molecule `O=C(Cn1cnc2nc(N3CCC(C(=O)NC4CC4)CC3)sc2c1=O)Nc1ccc(F)cc1F` showed an RP-LC retention time of 651 s. In the case of `O=S(=O)(Nc1cccn2c(C3CCC3)nnc12)c1cccc2cccnc12`, the RP-LC retention time was 749 s. As for `Cc1ccc(CN2CCCN(CC(=O)NC(C)CCc3ccccc3)S2(=O)=O)cc1` (centres undefined), the RP-LC retention time was 1050 s. The figure for `O=c1n(Cc2cc(F)cc(F)c2)nc2c(S(=O)(=O)N3CCOCC3)cccn12` is 743 s; for `Cc1cc(C)cc(NC(=O)N2CCCC(Cn3cnc4cccnc43)C2)c1` (centres undefined) it is 680 s.

In the case of `O=[N+]([O-])c1ccccc1S(=O)(=O)N1CCc2ccccc21`, the RP-LC retention time amounted to 893 s. With `COc1ccc(NC(=O)c2cn(CC3CCCO3)cc3c(=O)n(-c4ccccc4)nc2-3)cc1` (centres undefined) the figure was 937 s. On to `COCCNC(=O)Cn1c(=O)n(-c2ccc(F)cc2)c2ncccc21`, for which the RP-LC retention time came out at 652 s.

In the case of `COc1ccccc1N1CCN(c2ncc(C(F)(F)F)cc2Cl)CC1`, the RP-LC retention time came out at 1210 s. With `CCN1CCCn2cc(S(=O)(=O)Nc3cc(F)ccc3C)cc2C1=O` the figure was 729 s; with `CC(C)(C)c1ccc(C(=O)N2CCC3(CC2)N=C(c2ccccc2)NO3)cc1`, 991 s.
